Measurements reported in ChEMBL document CHEMBL1201862, “PubChem BioAssay data set” (2004).
Active and inactive are the calls of the source.

How the values were obtained:
[1] = biological target: T1, Heat shock factor protein 1 (Mus musculus, UniProt P38532); test: inhibition of MG132-induced HSE-luciferase signal, confirmation, cell-based, NIH3T3, luminescence, dose retest (AID 2382); type: functional;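 also: NIH3T3 fibroblasts with HSF1-driven luciferase reporter stressed by proteasome inhibitor MG132; luminescence from HSF1-driven luciferase expression after 8 hours of MG132 stress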
T1 sequence (P38532 whole entry): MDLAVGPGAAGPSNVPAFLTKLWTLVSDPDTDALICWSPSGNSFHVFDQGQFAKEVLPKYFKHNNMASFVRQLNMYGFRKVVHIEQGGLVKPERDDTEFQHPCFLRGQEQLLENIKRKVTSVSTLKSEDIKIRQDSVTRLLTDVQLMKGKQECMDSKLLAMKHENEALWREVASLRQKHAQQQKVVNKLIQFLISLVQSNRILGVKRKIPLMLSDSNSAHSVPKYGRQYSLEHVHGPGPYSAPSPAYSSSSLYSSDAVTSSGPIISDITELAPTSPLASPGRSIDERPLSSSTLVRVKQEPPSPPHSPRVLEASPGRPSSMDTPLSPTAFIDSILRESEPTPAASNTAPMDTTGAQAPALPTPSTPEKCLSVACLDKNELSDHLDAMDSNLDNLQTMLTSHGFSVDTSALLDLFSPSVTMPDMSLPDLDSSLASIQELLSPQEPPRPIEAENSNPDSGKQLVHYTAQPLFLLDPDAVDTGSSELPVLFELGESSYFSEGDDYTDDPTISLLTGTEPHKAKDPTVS

HEK293 = test: inhibitors of LMP1-driven NF-kB reporter, dose response, cell-based, HEK293, luciferase, cherry-pick (AID 588343); type: functional; settings: Homo sapiens
[2] = biological target: T2, Endoribonuclease toxin MazF (Escherichia coli K-12, UniProt P0AE70); test: MazF toxin RNase activators, dose response, biochemical, fluorescence, single-stranded RNA substrate, uHTS hits (AID 588481); type: functional
T2 sequence (P0AE70 whole entry): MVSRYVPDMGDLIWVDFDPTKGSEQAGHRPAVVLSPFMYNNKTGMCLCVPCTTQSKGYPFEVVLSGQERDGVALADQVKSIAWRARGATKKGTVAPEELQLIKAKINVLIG

[3] = biological target: T2, Endoribonuclease toxin MazF; test: fluorescent RNA oligo signal without MazF, dose response, counter-screen for MazEF activator project, biochemical, fluorescence, single-stranded RNase substrate (AID 588502); type: functional
[4] = biological target: T3, Rac GTPase-activating protein 1 (Homo sapiens, UniProt Q9H0H5); test: MgcRacGAP GTPase-activating activity inhibitors, confirmation, biochemical, ADP Hunter fluorescence, primary and confirmatory (AID 624330); type: functional
T3 sequence (Q9H0H5 whole entry): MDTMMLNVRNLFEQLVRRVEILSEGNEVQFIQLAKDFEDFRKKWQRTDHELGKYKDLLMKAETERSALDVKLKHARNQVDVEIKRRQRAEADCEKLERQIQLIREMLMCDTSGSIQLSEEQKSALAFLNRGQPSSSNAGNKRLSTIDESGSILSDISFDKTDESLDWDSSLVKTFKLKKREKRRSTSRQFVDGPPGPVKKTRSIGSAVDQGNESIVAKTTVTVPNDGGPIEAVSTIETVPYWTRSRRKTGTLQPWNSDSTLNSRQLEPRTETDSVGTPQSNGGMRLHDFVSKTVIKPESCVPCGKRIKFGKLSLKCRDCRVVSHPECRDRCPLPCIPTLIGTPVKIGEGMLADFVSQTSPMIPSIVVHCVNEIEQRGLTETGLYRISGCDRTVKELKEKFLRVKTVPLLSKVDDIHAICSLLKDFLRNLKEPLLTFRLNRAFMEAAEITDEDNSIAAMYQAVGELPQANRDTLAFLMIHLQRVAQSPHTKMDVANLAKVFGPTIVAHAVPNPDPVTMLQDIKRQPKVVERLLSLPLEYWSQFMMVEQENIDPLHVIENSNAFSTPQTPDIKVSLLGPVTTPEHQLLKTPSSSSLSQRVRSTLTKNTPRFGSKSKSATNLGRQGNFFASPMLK

[5] = biological target: T4, Microphthalmia-associated transcription factor (Homo sapiens, UniProt O75030); test: TRPM1 promoter luciferase signal decrease, dose response, MITF inhibitor project, cell-based, SK-MEL-5, cherry-picked, set 3 (AID 493073); type: functional
T4 sequence (O75030 whole entry): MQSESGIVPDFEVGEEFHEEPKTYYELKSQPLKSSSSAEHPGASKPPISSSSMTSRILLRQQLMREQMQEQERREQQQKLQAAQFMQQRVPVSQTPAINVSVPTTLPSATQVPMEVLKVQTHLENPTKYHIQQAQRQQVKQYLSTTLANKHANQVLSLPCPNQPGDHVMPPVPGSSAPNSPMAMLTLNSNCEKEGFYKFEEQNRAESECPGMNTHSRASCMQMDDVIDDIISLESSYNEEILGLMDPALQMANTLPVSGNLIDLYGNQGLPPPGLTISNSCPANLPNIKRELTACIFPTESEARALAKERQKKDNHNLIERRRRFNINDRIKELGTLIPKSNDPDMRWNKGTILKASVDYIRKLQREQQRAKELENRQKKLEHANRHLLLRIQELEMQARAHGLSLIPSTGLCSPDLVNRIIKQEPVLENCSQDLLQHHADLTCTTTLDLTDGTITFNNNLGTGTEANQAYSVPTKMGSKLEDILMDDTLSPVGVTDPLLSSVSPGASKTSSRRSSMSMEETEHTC

BJ [6] = test: cytotoxicity toward BJ-TERT fibroblasts, dose response, cell-based, RAS-independent, luminescence (AID 1933); type: functional; settings: Homo sapiens
BJ [7] = test: cytotoxicity toward BJ-TERT-LT-ST fibroblasts, dose response, cell-based, RAS-independent, luminescence (AID 1935); type: functional; settings: Homo sapiens;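 also: BJ fibroblasts immortalized with TERT plus LT and ST oncogenes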
BJ [8] = test: cells; type: functional, cell-based; settings: Homo sapiens
BJ [9] = test: cytotoxicity toward Ras-transformed BJeLR fibroblasts, dose response, cell-based, alamar blue fluorescence, cherrypicked samples (AID 2631); type: functional; settings: Homo sapiens;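 also: confirmatory dose-response assay in RAS-dependent BJ fibroblasts engineered with TERT, LT and ST, with cytotoxicity read by fluorescence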
[10] = cytotoxicity toward DRD oncogenic fibroblasts, dose response, cell-based, non-viral oncogenic, luminescence (AID 1934); type: functional; settings: Homo sapiens
[11] = biological target: FAD-linked sulfhydryl oxidase ALR (Homo sapiens, UniProt P55789); test: inhibitors of human ALR sulfhydryl oxidase, dose response, biochemical, H2O2 detection, luminescence, cherry-pick (AID 493248)
FAD-linked sulfhydryl oxidase ALR, sequence (P55789 whole entry): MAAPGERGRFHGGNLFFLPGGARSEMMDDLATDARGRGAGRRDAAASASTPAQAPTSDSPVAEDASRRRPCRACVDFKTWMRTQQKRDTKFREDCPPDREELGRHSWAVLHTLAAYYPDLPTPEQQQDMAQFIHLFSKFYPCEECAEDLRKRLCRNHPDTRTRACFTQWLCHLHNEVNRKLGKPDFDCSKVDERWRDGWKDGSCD

Caspase-6 = biological target: T5, Caspase-6 (Homo sapiens, UniProt P55212); test: human caspase-6 inhibitors, dose response, biochemical, VEID-R110 fluorescence, cherry-pick (AID 720632)
T5 sequence (P55212 whole entry): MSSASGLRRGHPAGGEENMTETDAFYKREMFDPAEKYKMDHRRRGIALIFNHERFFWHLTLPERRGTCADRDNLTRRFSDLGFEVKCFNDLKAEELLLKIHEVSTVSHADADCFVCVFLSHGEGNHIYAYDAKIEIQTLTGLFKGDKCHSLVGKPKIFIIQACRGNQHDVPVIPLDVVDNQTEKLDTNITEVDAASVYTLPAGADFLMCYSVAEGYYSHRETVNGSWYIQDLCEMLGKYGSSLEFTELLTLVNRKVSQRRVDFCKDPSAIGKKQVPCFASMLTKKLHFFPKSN

[12] = inhibitors of firefly luciferase expression or activity, dose response, H4 neuroglioma cells, luminescence (AID 1990); type: functional, cell-based
[13] = Luminescence Cell-Based Dose Response HTS to Identify Inhibitors of 5'UTR Stem-Loop Driven Prion Protein mRNA Translation in H4 Neuroglioblastoma Cells. [Related pubchem assays: 1827 (Project Summary), 1813 (Primary HTS)]; type: functional
[14] = inhibitors of SNCA 5'UTR-driven reporter translation, confirmation, H4 neuroglioma cells, luminescence (AID 1988); type: functional, cell-based
[15] = inhibitors of intracellular T. cruzi replication, confirmation, NIH3T3 host cells, beta-gal luminescence (AID 2044); type: functional, cell-based;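 also: intracellular parasites grown in NIH/3T3 mouse fibroblasts as host cells; luminescent beta-galactosidase reporter signal from transgenic T. cruzi replicating inside host cells; inhibitors lower the luminescence signal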
[16] = A Cell Based Secondary Assay To Explore Cytotoxicity of Compounds that Sensitize Mycobacterium Tuberculosis to Beta-Lactam Antibiotics.; type: functional
INS1 = test: beta cell apoptosis inhibitors, cytokine rescue, dose response, luminescence, retest (AID 449756); type: functional, cell-based; settings: Rattus norvegicus;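 also: cell death triggered by IL-1 beta plus TNF-alpha plus IFN-gamma mixture; protective hits raise ATP signal compared with cytokine alone wells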
[17] = cytotoxicity toward NIH3T3 fibroblasts, dose response, counter-screen, cell-based, ATP luminescence, mouse fibroblasts (AID 2010); type: functional;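 also: cells exposed to compound for about 90 hours before reading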
[18] = system: Streptococcus sp. 'group A'; test: growth inhibition of control SK(-) GAS strain, dose response, counter-screen for streptokinase expression inhibitor project, luminescence, kanamycin, BacTiterGlo, confirmation (AID 1900); type: functional, organism-based
[19] = microbe, parasite or virus in culture; type: functional; settings: Mycobacterium tuberculosis
[20] = Shn3 3'UTR reporter inhibitors, dose response, cell-based, Clone20 osteoblasts, firefly luciferase, cherry-picked (AID 624132); type: functional;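 also: firefly luciferase luminescence from reporter carrying the Shn3 3'UTR in osteoblasts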
Streptococcus = test: Group A Streptococcus viability loss, dose response, counter-screen for streptokinase expression inhibitor project, luminescence, BacTiterGlo (AID 1915); type: functional, organism-based;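 also: potency for reduction of bacterial viability or growth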
Paired box protein Pax-8 = Paired box protein Pax-8 (Homo sapiens, UniProt Q06710); test: inhibitors of PAX8-driven TPO luciferase reporter, dose response, RMG-I cells, cherry-pick (AID 687027); type: functional, cell-based;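 also: luciferase reporter driven by Pax8 target thyroperoxidase promoter measured by SteadyGlo luminescence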
Paired box protein Pax-8, sequence (Q06710 whole entry): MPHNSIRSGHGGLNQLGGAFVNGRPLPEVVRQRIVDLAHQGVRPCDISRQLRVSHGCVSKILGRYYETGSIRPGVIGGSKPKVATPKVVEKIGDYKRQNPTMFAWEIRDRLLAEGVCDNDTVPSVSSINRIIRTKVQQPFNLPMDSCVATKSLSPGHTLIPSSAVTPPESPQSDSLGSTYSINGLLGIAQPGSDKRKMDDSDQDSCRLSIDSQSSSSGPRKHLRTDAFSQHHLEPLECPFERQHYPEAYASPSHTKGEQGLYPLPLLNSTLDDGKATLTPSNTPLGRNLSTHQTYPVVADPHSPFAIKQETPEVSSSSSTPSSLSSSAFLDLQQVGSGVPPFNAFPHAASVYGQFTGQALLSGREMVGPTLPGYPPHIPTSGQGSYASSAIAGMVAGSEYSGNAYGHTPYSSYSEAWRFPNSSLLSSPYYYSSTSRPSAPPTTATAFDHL

[21] = HepG2 cell cytotoxicity, dose response, cytotoxicity control for Shn3 inhibitor project, CellTiter-Glo, cherry-picked (AID 624134); type: functional, cell-based
[22] = control 3'UTR Renilla luciferase suppression, dose response, counter-screen for Shn3 inhibitor project, cell-based, Clone20-Shn3RL, cherry-picked (AID 624133); type: functional

Cc1cc(/C=C2\Cc3ccccc3C2=O)c(C)n1-c1ccccc1
EC50 [1]: < 0.16 µM (active) | AC50 (HEK293): 1.87 µM (active)

Cc1ccc(-c2ccccc2NC(=O)C[S+]([O-])CC(=O)Nc2ccc(C)c(Cl)c2)o1 (centres undefined)
EC50 [2]: 34.1 µM (inactive) | EC50 [3]: 41.5 µM (inactive)

COC(=O)CCNc1ccc2c(c1)OCCO2
IC50 [4]: 251 µM (active) | EC50 [1]: 1.73 µM (active) | AC50 (HEK293): 1.9 µM (active)

CC(=O)c1cccc(NC(=O)/C=C/c2ccc([N+](=O)[O-])s2)c1
AC50 [5]: 7.16 µM (active) | EC50 (BJ [6]): 4.44 µM (active) | EC50 (BJ [7]): 4.95 µM (inconclusive) | EC50 (BJ [8]): > 150 µM (inconclusive) | EC50 (BJ [9]): 0.545 µM (inconclusive) | EC50 [10]: 5.53 µM (active)

COC(=O)c1nn2c(C(F)(F)F)cc(-c3ccc(Br)o3)nc2c1Br
EC50 [2]: > 99 µM (inactive) | EC50 [3]: 30.5 µM (inactive)

CC(=O)CSc1nc2cc3c(cc2cc1C#N)OCCO3
EC50 [2]: > 99 µM (inactive) | EC50 [3]: 29.5 µM (inactive)

NNS(=O)(=O)c1ccc2c(c1)Cc1cc(S(=O)(=O)NN)ccc1-2
AC50 [11]: 0.079 µM (active) | AC50 (Caspase-6): 15.8 µM (active) | EC50 [2]: 89.5 µM (inactive) | EC50 [3]: 4.48 µM (active)

CSc1ccc(S(=O)(=O)NCC(=O)OCCOc2ccccc2)cc1[N+](=O)[O-]
EC50 [2]: 25.8 µM (inactive) | EC50 [3]: > 99 µM (inactive)

COc1ccccc1N1C(=O)S/C(=C\c2cc(C)n(C)c2C)C1=O
EC50 [2]: > 99 µM (inactive) | EC50 [3]: 30.6 µM (inactive)

Cc1csc(SCC(=O)c2cc(C)n(Cc3cccs3)c2C)n1
EC50 [12]: 8.74 µM (active) | EC50 [13]: 8.09 µM (active) | EC50 [14]: 6.24 µM (active) | AC50 (HEK293): 2.29 µM (active)

Cc1cc(NC(=O)/C(C#N)=C\c2ccc(-c3ccc(SC(F)F)cc3)o2)n(-c2ccccc2)n1
EC50 [2]: > 99 µM (inactive) | EC50 [3]: 22.8 µM (inactive)

C=CCn1c(=O)/c(=C\c2ccccn2)s/c1=C(/C#N)C(=O)NCC1CCCO1 (centres undefined)
EC50 [2]: > 99 µM (inactive) | EC50 [3]: > 99 µM (inactive)

COc1cc(C(=O)Oc2ccccc2/C=N/NC(=O)c2ccc(C)c(Cl)c2)cc(OC)c1OC
EC50 [15]: 1.17 µM (active) | CC50 [16]: 2.84 µM (active) | AC50 (INS1): 0.829 µM (active) | EC50 [17]: > 60 µM (not active) | AC50 (HEK293): 12.9 µM (active)

O=[N+]([O-])c1ccc(O)c(-c2cc(C(F)(F)F)nc(-c3ccccc3)n2)c1
EC50 [18]: 0.104 µM (active) | EC50 [12]: 9.18 µM (active) | EC50 (BJ [6]): 2.44 µM (active) | EC50 (BJ [7]): 2.14 µM (inconclusive) | CC50 [19]: 0.546 µM (active) | AC50 [20]: 2.73 µM (active) | EC50 [13]: 9.13 µM (active) | EC50 (BJ [8]): 2.95 µM (active) | AC50 (INS1): 1.05 µM (active) | EC50 [14]: 8.04 µM (inconclusive) | EC50 (Streptococcus): 0.254 µM (active) | AC50 (Paired box protein Pax-8): 0.811 µM (active) | EC50 (BJ [9]): 0.571 µM (inconclusive) | AC50 [21]: 1.61 µM (active) | AC50 [22]: 0.906 µM (active) | EC50 [10]: 2.96 µM (active)
